Measured values from ChEMBL document CHEMBL4507267 (2021).

Tests used:
[1] = target: Serine/threonine-protein kinase 16 (Homo sapiens) (UniProt O75716); conditions: Compound concentration 1000.0 nM
[2] = target: Serine/threonine-protein kinase pim-3 (Homo sapiens) (UniProt Q86V86); conditions: Compound concentration 1000.0 nM
[3] = target: Tyrosine-protein kinase FRK (Homo sapiens) (UniProt P42685); conditions: Compound concentration 1000.0 nM
[4] = target: Serine/threonine-protein kinase PLK4 (Homo sapiens) (UniProt O00444); conditions: Compound concentration 1000.0 nM
[5] = tested on: Tyrosine-protein kinase ABL1 (Homo sapiens), P00519 [Y253F]; conditions: Compound concentration 1000.0 nM
[6] = target: Cyclin-dependent kinase 4 (Homo sapiens) (UniProt P11802); conditions: Compound concentration 1000.0 nM
[7] = target: Dual specificity tyrosine-phosphorylation-regulated kinase 2 (Homo sapiens) (UniProt Q92630); conditions: Compound concentration 1000.0 nM
[8] = tested on: Fibroblast growth factor receptor 3 (Homo sapiens), P22607 [G697C]; conditions: Compound concentration 1000.0 nM
[9] = target: Tyrosine-protein kinase Mer (Homo sapiens) (UniProt Q12866); conditions: Compound concentration 1000.0 nM
[10] = target: Calcium/calmodulin-dependent protein kinase type 1B (Homo sapiens) (UniProt Q6P2M8); conditions: Compound concentration 1000.0 nM
[11] = target: Homeodomain-interacting protein kinase 4 (Homo sapiens) (UniProt Q8NE63); conditions: Compound concentration 1000.0 nM
[12] = target: Cyclin-dependent kinase-like 3 (Homo sapiens) (UniProt Q8IVW4); conditions: Compound concentration 1000.0 nM
[13] = target: Serine/threonine-protein kinase Nek6 (Homo sapiens) (UniProt Q9HC98); conditions: Compound concentration 1000.0 nM
[14] = target: MAP kinase-activated protein kinase 5 (Homo sapiens) (UniProt Q8IW41); conditions: Compound concentration 1000.0 nM
[15] = target: Serine/threonine-protein kinase 24 (Homo sapiens) (UniProt Q9Y6E0); conditions: Compound concentration 1000.0 nM
[16] = target: Serine/threonine-protein kinase 17A (Homo sapiens) (UniProt Q9UEE5); conditions: Compound concentration 1000.0 nM
[17] = target: Ribosomal protein S6 kinase beta-1 (Homo sapiens) (UniProt P23443); conditions: Compound concentration 1000.0 nM
[18] = target: Dual serine/threonine and tyrosine protein kinase (Homo sapiens) (UniProt Q6XUX3); conditions: Compound concentration 1000.0 nM
[19] = target: Atypical kinase COQ8A, mitochondrial (Homo sapiens) (UniProt Q8NI60); conditions: Compound concentration 1000.0 nM
[20] = target: Ribosomal protein S6 kinase alpha-2 (Homo sapiens) (UniProt Q15349); conditions: Compound concentration 1000.0 nM
[21] = target: Casein kinase I isoform gamma-2 (Homo sapiens) (UniProt P78368); conditions: Compound concentration 1000.0 nM
[22] = target: Serine/threonine-protein kinase RIO2 (Homo sapiens) (UniProt Q9BVS4); conditions: Compound concentration 1000.0 nM
[23] = target: Cyclin-dependent kinase 13 (Homo sapiens) (UniProt Q14004); conditions: Compound concentration 1000.0 nM
[24] = target: Serine/threonine-protein kinase SIK3 (Homo sapiens) (UniProt Q9Y2K2); conditions: Compound concentration 1000.0 nM
[25] = target: Inhibitor of nuclear factor kappa-B kinase subunit beta (Homo sapiens) (UniProt O14920); conditions: Compound concentration 1000.0 nM
[26] = target: SRSF protein kinase 1 (Homo sapiens) (UniProt Q96SB4); conditions: Compound concentration 1000.0 nM
[27] = target: Cyclin-dependent kinase-like 2 (Homo sapiens) (UniProt Q92772); conditions: Compound concentration 1000.0 nM
[28] = target: Serine/threonine-protein kinase PAK 5 (Homo sapiens) (UniProt Q9P286); conditions: Compound concentration 1000.0 nM
[29] = target: Ephrin type-A receptor 2 (Homo sapiens) (UniProt P29317); conditions: Compound concentration 1000.0 nM
[30] = target: TGF-beta receptor type-1 (Homo sapiens) (UniProt P36897); conditions: Compound concentration 1000.0 nM
[31] = target: Calcium/calmodulin-dependent protein kinase type II subunit beta (Homo sapiens) (UniProt Q13554); conditions: Compound concentration 1000.0 nM
[32] = target: Alpha-1D adrenergic receptor (Homo sapiens) (UniProt P25100); conditions: Compound concentration 10.0 uM
[33] = target: Serine/threonine-protein kinase PAK 3 (Homo sapiens) (UniProt O75914); conditions: Compound concentration 1000.0 nM
[34] = target: Mitogen-activated protein kinase kinase kinase 7 (Homo sapiens) (UniProt O43318); conditions: Compound concentration 1000.0 nM
[35] = tested on: Tyrosine-protein kinase ABL1 (Homo sapiens), P00519 [T315I]; conditions: Compound concentration 1000.0 nM
[36] = target: Rho-associated protein kinase 2 (Homo sapiens) (UniProt O75116); conditions: Compound concentration 1000.0 nM
[37] = target: MAP kinase-interacting serine/threonine-protein kinase 1 (Homo sapiens) (UniProt Q9BUB5); conditions: Compound concentration 1000.0 nM
[38] = target: Receptor-interacting serine/threonine-protein kinase 4 (Homo sapiens) (UniProt P57078); conditions: Compound concentration 1000.0 nM
[39] = target: Proto-oncogene tyrosine-protein kinase receptor Ret (Homo sapiens) (UniProt P07949); conditions: Compound concentration 1000.0 nM
[40] = target: Serine/threonine-protein kinase MARK1 (Homo sapiens) (UniProt Q9P0L2); conditions: Compound concentration 1000.0 nM
[41] = target: Serine/threonine-protein kinase Nek2 (Homo sapiens) (UniProt P51955); conditions: Compound concentration 1000.0 nM
[42] = target: Ephrin type-A receptor 8 (Homo sapiens) (UniProt P29322); conditions: Compound concentration 1000.0 nM
[43] = target: MAP kinase-activated protein kinase 2 (Homo sapiens) (UniProt P49137); conditions: Compound concentration 1000.0 nM
[44] = tested on: Mast/stem cell growth factor receptor Kit (Homo sapiens), P10721 [V559D,T670I]; conditions: Compound concentration 1000.0 nM
[45] = target: Cyclin-dependent kinase 2 homolog (Plasmodium falciparum (isolate 3D7)) (UniProt P61075); conditions: Compound concentration 1000.0 nM
Sequence of Cyclin-dependent kinase 2 homolog (Plasmodium falciparum (isolate 3D7)) (P61075 whole entry): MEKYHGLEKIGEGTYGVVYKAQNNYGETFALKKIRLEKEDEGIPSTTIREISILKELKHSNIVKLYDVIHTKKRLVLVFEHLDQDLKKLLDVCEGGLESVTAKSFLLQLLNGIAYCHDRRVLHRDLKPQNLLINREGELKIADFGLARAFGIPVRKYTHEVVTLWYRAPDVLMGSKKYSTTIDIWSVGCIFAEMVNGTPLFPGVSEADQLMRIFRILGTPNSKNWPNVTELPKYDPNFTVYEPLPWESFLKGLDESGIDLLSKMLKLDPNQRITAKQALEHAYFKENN

Sequence of Serine/threonine-protein kinase SIK3 (Homo sapiens) (Q9Y2K2 whole entry, looked up): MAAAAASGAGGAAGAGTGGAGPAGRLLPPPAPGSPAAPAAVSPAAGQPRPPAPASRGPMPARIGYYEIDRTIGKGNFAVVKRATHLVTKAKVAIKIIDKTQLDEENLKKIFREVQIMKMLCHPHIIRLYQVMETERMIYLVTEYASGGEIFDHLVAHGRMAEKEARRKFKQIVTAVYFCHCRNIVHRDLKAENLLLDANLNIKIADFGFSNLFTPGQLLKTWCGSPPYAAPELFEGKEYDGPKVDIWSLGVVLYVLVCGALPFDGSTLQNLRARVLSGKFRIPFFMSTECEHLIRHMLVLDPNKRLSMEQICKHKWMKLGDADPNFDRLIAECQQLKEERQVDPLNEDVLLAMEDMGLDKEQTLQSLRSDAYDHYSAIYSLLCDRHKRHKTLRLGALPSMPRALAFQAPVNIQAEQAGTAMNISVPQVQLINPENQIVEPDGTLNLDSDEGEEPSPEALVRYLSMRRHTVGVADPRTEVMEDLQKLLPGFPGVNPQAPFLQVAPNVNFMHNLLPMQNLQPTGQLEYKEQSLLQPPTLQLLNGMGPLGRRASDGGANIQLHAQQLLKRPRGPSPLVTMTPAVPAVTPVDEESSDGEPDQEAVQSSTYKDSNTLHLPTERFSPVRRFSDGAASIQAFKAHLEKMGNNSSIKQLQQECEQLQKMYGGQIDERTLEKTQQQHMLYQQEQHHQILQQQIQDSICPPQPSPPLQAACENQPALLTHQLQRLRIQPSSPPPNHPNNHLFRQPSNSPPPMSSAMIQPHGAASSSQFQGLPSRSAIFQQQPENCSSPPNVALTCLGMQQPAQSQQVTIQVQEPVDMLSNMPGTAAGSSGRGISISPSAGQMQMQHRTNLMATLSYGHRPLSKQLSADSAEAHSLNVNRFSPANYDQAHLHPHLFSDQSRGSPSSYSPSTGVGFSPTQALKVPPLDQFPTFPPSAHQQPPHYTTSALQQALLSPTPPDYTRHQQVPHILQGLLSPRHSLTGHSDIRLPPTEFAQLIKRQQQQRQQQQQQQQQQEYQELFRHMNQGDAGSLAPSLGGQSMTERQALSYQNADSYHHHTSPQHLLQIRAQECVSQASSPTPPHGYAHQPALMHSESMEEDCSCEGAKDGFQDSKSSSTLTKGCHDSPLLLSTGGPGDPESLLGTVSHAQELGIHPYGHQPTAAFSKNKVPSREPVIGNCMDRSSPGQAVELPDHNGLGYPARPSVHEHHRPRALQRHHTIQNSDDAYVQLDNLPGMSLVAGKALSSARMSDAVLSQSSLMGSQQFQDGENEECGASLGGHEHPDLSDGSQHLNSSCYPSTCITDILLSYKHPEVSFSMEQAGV
Sequence of Rho-associated protein kinase 2 (Homo sapiens) (O75116 whole entry, looked up): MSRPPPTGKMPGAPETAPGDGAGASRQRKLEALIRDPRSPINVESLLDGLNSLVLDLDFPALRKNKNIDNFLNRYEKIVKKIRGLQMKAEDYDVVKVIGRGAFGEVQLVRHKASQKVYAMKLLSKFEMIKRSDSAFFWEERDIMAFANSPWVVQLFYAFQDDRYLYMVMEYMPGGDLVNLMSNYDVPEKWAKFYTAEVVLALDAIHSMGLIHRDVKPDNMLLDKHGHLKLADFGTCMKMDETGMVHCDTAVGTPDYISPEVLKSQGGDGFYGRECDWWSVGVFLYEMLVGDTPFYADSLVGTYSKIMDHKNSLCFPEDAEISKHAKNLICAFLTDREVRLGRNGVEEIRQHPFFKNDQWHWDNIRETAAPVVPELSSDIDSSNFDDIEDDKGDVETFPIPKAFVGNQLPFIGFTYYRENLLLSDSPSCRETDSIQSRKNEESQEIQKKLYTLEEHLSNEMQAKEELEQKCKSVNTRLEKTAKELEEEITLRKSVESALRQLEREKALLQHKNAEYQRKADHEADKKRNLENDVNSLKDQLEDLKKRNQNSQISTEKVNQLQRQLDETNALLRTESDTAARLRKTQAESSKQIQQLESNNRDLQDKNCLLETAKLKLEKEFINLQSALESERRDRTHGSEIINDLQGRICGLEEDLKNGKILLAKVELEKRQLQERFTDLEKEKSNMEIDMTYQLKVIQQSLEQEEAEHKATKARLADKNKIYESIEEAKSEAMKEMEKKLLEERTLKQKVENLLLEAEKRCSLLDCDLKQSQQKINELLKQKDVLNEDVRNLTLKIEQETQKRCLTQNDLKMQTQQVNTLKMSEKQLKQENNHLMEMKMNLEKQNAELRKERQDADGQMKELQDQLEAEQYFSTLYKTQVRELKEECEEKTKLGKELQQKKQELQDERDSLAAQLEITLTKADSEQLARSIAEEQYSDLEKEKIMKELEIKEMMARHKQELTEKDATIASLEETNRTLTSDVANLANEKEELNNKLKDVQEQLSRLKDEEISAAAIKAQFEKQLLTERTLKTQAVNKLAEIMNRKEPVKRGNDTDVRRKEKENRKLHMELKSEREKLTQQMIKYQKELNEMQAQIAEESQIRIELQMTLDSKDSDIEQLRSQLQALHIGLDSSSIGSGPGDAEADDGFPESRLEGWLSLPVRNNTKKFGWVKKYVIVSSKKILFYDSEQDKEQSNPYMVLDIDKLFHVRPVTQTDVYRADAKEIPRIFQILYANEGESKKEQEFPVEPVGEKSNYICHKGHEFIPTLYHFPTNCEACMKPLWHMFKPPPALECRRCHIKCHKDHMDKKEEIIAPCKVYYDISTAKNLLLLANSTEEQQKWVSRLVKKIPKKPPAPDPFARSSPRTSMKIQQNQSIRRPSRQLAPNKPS
Sequence of Cyclin-dependent kinase-like 3 (Homo sapiens) (Q8IVW4 whole entry, looked up): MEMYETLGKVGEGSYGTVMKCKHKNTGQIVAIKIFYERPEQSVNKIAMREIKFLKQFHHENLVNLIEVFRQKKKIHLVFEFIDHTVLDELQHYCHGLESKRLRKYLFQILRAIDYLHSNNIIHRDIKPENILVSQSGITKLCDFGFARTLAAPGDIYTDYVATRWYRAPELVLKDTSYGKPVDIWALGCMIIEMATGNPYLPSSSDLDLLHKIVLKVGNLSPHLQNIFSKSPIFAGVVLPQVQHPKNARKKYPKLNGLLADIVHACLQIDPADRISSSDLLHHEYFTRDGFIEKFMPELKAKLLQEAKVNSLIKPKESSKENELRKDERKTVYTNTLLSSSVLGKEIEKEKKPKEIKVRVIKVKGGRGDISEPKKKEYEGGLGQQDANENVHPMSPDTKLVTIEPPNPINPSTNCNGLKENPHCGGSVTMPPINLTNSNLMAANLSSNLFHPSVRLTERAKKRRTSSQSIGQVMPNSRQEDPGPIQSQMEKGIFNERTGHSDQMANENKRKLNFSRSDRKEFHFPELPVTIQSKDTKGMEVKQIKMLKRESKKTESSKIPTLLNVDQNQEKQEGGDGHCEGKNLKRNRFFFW
Sequence of Tyrosine-protein kinase FRK (Homo sapiens) (P42685 whole entry): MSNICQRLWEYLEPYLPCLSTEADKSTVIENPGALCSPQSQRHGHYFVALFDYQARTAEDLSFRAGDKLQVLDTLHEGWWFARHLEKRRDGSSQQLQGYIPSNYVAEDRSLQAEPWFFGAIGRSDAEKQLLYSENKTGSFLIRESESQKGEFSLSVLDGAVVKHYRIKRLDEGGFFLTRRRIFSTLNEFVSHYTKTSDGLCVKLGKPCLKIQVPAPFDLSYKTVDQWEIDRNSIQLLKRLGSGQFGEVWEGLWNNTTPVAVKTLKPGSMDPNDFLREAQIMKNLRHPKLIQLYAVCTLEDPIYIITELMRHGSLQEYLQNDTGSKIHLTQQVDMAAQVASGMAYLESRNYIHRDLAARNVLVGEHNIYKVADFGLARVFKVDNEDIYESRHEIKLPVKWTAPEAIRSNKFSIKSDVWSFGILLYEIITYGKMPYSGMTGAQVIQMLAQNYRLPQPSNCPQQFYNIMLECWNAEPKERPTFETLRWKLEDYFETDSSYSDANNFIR
Sequence of SRSF protein kinase 1 (Homo sapiens) (Q96SB4 whole entry): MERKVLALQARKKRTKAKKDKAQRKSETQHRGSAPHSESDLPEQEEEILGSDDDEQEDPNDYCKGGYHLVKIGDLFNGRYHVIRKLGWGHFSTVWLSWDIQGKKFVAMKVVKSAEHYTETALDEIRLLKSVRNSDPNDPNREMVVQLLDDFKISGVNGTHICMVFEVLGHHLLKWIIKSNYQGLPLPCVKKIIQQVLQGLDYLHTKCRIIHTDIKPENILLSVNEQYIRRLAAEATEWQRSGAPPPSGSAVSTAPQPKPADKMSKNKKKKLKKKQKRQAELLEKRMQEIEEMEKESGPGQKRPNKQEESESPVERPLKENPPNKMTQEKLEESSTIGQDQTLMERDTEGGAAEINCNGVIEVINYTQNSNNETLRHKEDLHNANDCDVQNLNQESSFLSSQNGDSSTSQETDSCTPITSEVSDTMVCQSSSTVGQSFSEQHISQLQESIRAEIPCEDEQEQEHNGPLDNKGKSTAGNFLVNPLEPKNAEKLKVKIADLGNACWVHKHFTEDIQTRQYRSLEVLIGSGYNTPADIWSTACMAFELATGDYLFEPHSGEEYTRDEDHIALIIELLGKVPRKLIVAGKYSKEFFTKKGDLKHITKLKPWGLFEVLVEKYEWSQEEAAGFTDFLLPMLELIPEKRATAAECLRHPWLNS
Sequence of Serine/threonine-protein kinase Nek6 (Homo sapiens) (Q9HC98 whole entry): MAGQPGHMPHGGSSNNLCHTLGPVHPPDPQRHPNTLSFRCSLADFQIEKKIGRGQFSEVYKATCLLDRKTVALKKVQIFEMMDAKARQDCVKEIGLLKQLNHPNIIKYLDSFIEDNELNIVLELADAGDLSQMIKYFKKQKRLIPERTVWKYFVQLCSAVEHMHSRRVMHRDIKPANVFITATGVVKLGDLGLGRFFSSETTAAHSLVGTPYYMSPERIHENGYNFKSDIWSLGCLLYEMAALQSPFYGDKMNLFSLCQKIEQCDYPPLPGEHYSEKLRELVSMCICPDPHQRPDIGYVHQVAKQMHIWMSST

Cc1c(NC(=O)c2cc(C(N)=O)nc3cc(F)ccc23)c(C(F)(F)F)nn1Cc1ccc(C(C)(C)C)cc1 [BAY-588]
inactive: residual activity [1] 83% | residual activity [2] 100% | residual activity [3] 90% | residual activity [4] 100% | residual activity [5] 100% | residual activity [6] 100% | residual activity [7] 88% | residual activity [8] 97% | residual activity [9] 86% | residual activity [10] 100% | residual activity [11] 88% | residual activity [12] 87% | residual activity [13] 86% | residual activity [14] 87% | residual activity [15] 100% | residual activity [16] 79% | residual activity [17] 100% | residual activity [18] 89% | residual activity [19] 85% | residual activity [20] 100% | residual activity [21] 100% | residual activity [22] 76% | residual activity [23] 100% | residual activity [24] 91% | residual activity [25] 100% | residual activity [26] 100% | residual activity [27] 100% | residual activity [28] 100% | residual activity [29] 97% | residual activity [30] 91% | residual activity [31] 98% | inhibition [32] 2.92% | residual activity [33] 100% | residual activity [34] 100% | residual activity [35] 85% | residual activity [36] 100% | residual activity [37] 100% | residual activity [38] 100% | residual activity [39] 100% | residual activity [40] 100% | residual activity [41] 100% | residual activity [42] 100% | residual activity [43] 100% | residual activity [44] 100% | residual activity [45] 100%

Cc1c(NC(=O)c2cc(C(N)=O)nc3cc(F)ccc23)c(C(F)(F)F)nn1Cc1ccc(C#N)cc1 [BAY-876]
inactive: residual activity [1] 100% | residual activity [2] 100% | residual activity [3] 100% | residual activity [4] 100% | residual activity [5] 80% | residual activity [6] 81% | residual activity [7] 88% | residual activity [8] 89% | residual activity [9] 100% | residual activity [10] 64% | residual activity [11] 100% | residual activity [12] 80% | residual activity [13] 100% | residual activity [14] 84% | residual activity [15] 78% | residual activity [16] 90% | residual activity [17] 80% | residual activity [18] 78% | residual activity [19] 82% | residual activity [20] 85% | residual activity [21] 88% | residual activity [22] 76% | residual activity [23] 87% | residual activity [24] 81% | residual activity [25] 92% | residual activity [26] 83% | residual activity [27] 92% | residual activity [28] 92% | residual activity [29] 81% | residual activity [30] 80% | residual activity [31] 90% | inhibition [32] 7.36% | residual activity [33] 76% | residual activity [34] 68% | residual activity [35] 92% | residual activity [36] 99% | residual activity [37] 68% | residual activity [38] 92% | residual activity [39] 94% | residual activity [40] 100% | residual activity [41] 100% | residual activity [42] 91% | residual activity [43] 97% | residual activity [44] 89% | residual activity [45] 91%
